≈ marks a conversion by molar mass, not a printed value. Like-named read-outs stand apart in the source and are kept apart here.
Experiments:
PA14 4.18 (pmrB) = experiment: microbe, parasite or virus in culture; conditions: supplementary CSV
Procedure: (§1) Antimicrobial activity was determined for all peptides on E. coli W3110, P. aeruginosa PAO1, A. baumannii ATCC19606, K. pneumoniae NCTC418, and methicillin-resistant S. aureus COL and for selected peptides on P. aeruginosa PA14 and the polymyxin B-resistant derivatives PA14 4.13, PA14 4.18, and PA14 2P4 as well as the clinical isolates ZEM-1A and ZEM9A, K. pneumoniae OXA-48, Enterobacter cloacae, Stenotrophomonas maltophilia, B. cenocepacia, and Staphylococus epidermis. To determine the MIC, the broth microdilution method was used.[75] A single bacterial colony was grown in LB medium overnight at 37 °C and 180 rpm shaking. The compounds were prepared as stock solutions of 2 mg/mL in sterilized milliQ deionized water, added to the first well of 96-well sterile, polypropylene round-bottom microtiter plates (TPP, untreated, Corning Incorporated, Kennebunk, USA), and diluted serially by 1/2. […] The bacterial inoculum was prepared by measuring the absorbance of the overnight culture, which was diluted to concentration of the bacteria was quantified by measuring absorbance at 600 nm and diluted to an OD600 of 0.022 in MH medium pH 7.4 (Sigma-Aldrich, Buchs, Switzerland). The sample solutions (150 μL) were mixed with 4 μL of diluted bacterial suspension with a final inoculation of about 5 × 10^5 CFU. For each test, two columns of the plate were kept for sterility control (MH medium only) and growth control (MH medium with bacterial inoculum, no compound). […] The plates were incubated at 37 °C for 16–20 h under static conditions. 15 μL of 3-(4,5-dimethylthiazol-2-yl)-2,5-diphenyltetrazolium bromide (MTT)[76] (1 mg/mL in sterilized milliQ deionized water) was added to each well, and the plates were incubated at room temperature until MTT staining was completed. The MIC was defined as the lowest concentration of the dendrimer that inhibits the visible growth of the tested bacteria (yellow) with the unaided eye.

P. aeruginosa ZEM-1A = experiment: microbe, parasite or virus in culture; conditions: pH 7.4
Procedure: as §1

Burkolderia cenocepacia = experiment: microbe, parasite or virus in culture; conditions: for MIC Burkolderia cenocepacia: MDR strain, MH broth pH 7.4, 16–20 h, 37 °C; for MIC B. cenocepacia: supplementary CSV
Procedure: as §1

Enterobacter cloacae = experiment: microbe, parasite or virus in culture; conditions: pH 7.4
Procedure: as §1

PA14 4.13 (phoQ) = experiment: microbe, parasite or virus in culture; conditions: supplementary CSV
Procedure: as §1

PA14 2P4 (pmrB) = experiment: microbe, parasite or virus in culture; conditions: supplementary CSV
Procedure: as §1

P. aeruginosa PA14 = experiment: microbe, parasite or virus in culture; conditions: for MIC PA14: MH broth pH 7.4, 16–20 h, 37 °C; for MIC P. aeruginosa PA14: supplementary CSV
Procedure: as §1

Staphylococcus epidermis = experiment: MIC broth microdilution, Staphylococcus epidermis; assay type: cell-based; conditions: pH 7.4
Procedure: as §1

S. aureus Newman = conditions: for MIC S. aureus Newman: MH broth pH 7.4, 16–20 h, 37 °C; for MIC S. aureus Newmann: supplementary CSV
E. coli W3110 = conditions: MH broth pH 7.4, 16–20 h, 37 °C
Procedure: as §1

K. pneumoniae NCTC418 = system: K. pneumoniae NCTC418
Procedure: as §1

A. baumannii ATCC19606 = system: A. baumannii ATCC19606
Procedure: as §1

S. aureus COL MRSA = conditions: for MIC S. aureus COL MRSA: MH broth pH 7.4, 16–20 h, 37 °C; for MIC S. aureus COL: supplementary CSV, ranges of Table 1 given as one number
Procedure: as §1

P. aeruginosa PAO1 = system: P. aeruginosa PAO1
Procedure: as §1

A549 cells = experiment: Alamar blue cytotoxicity, A549; assay type: cell-based, human; conditions: 24 h, mean ± SD, n = 3, read-out: Toxicity on A549 lung cancern cells
Procedure: (§2) The A549 human lung adenocarcinoma cells are derived from a patient and were kindly given to us by Dr. Georgia Konstatinidou (Pharmacology Institute, Bern University). HEK293T cells were obtained from ATCC (CRL-11268). A549 and HEK293 were cultured in an incubator at 37 °C with 5% CO2 in RPMI-1640 (Gibco) and DMEM (Gibco) containing 10% fetal bovine serum (Thermo Fisher), 100 I.U./mL penicillin, and 100 μg/mL streptomycin (Gibco).
(§3) The viability of the cells was assessed with an AlamarBlue assay (ThermoFisher). Cells were seeded into 96-well plates, 4000 cells/well (HEK293) and 8000 cells/well (A549), the day before the experiment. Cells were then treated with the increasing concentration of the compound and incubated for 24 h at 37 °C in the presence of 5% CO2. The next day, the medium was removed and replaced by a 10% AlamarBlue solution in full growth medium (DMEM or RPMI-1640). The cells were incubated for 3–5 h at 37 °C with 5% CO2 in a humidified atmosphere. The fluorescence was then measured on a Tecan Infinite M1000 Pro plate reader at λex 560 nm and λem 590 nm. The value was normalized according to the untreated cells.

K. pneumoniae Oxa-48 = experiment: MIC broth microdilution, K. pneumoniae Oxa-48; assay type: cell-based, Klebsiella pneumoniae; conditions: MDR strain; MH broth pH 7.4, 16–20 h, 37 °C
Procedure: as §1

HEK293 cells = experiment: Alamar blue cytotoxicity, HEK293; assay type: cell-based, human; conditions: 24 h, mean ± SD, n = 3, read-out: Toxicity on HEK293 cells
Procedure: as §2, §3

[1] = system: Stenotrophomonas maltophilia; experiment: microbe, parasite or virus in culture; assay type: cell-based; conditions: pH 7.4
Procedure: as §1

P. aeruginosa ZEM9A = experiment: microbe, parasite or virus in culture; assay type: cell-based, Pseudomonas aeruginosa; conditions: pH 7.4
Procedure: as §1

[2] = MH broth pH 7.4, 16–20 h, 37 °C
[3] = supplementary CSV, ranges of Table 1 given as one number

## CC(C)C[C@H](NC(=O)[C@H](CC(C)C)NC(=O)[C@H](CC(C)C)NC(=O)[C@H](CCCCN)NC(=O)[C@H](CC(C)C)NC(=O)[C@H](CC(C)C)NC(=O)[C@@H](CCCCN)NC(=O)[C@H](CC(C)C)NC(=O)[C@H](CC(C)C)NC(=O)[C@@H](CCCCN)NC(=O)[C@@H](N)CCCCN)C(N)=O [HP3, KkLLkLLKLLL]
PA14 4.18 (pmrB)
  MIC P. aeruginosa PA14 4.18: 32 µg/mL (≈ 24.2 µM)
P. aeruginosa ZEM-1A
  MIC ZEM-1A: 2 µg/mL (≈ 1.51 µM)
Burkolderia cenocepacia
  MIC Burkolderia cenocepacia: >64 µg/mL
  MIC B. cenocepacia: > 64 µg/mL
Enterobacter cloacae
  MIC Enterobacter cloacae: 4 µg/mL (≈ 3.03 µM)
PA14 4.13 (phoQ)
  MIC P. aeruginosa PA14 4.13: 8 µg/mL (≈ 6.05 µM)
PA14 2P4 (pmrB)
  MIC P. aeruginosaPA14 2P4: 32 µg/mL (≈ 24.2 µM)
P. aeruginosa PA14
  MIC PA14: 4 µg/mL (≈ 3.03 µM)
  MIC P. aeruginosa PA14: 4 µg/mL (≈ 3.03 µM)
Staphylococcus epidermis
  MIC Staphylococcus epidermis: 4 µg/mL (≈ 3.03 µM)
S. aureus Newman
  MIC S. aureus Newman: 2 µg/mL (≈ 1.51 µM)
  MIC S. aureus Newmann: 2 µg/mL (≈ 1.51 µM)
E. coli W3110
  MIC E. coli W3110: 2 µg/mL (≈ 1.51 µM)
K. pneumoniae NCTC418; [2]
  MIC K. pneumoniae NCTC418: 8 µg/mL (≈ 6.05 µM)
K. pneumoniae NCTC418; [3]
  MIC K. pneumoniae NCTC418: 8 µg/mL (≈ 6.05 µM)
A. baumannii ATCC19606; [2]
  MIC A. baumannii ATCC19606: 2 µg/mL (≈ 1.51 µM)
A. baumannii ATCC19606; [3]
  MIC A. baumannii ATCC19606: 2 µg/mL (≈ 1.51 µM)
S. aureus COL MRSA
  MIC S. aureus COL MRSA: 2 to 4 µg/mL
  MIC S. aureus COL: 3 µg/mL (≈ 2.27 µM)
P. aeruginosa PAO1; [2]
  MIC P. aeruginosa PAO1: 4 µg/mL (≈ 3.03 µM)
P. aeruginosa PAO1; [3]
  MIC P. aeruginosa PAO1: 4 µg/mL (≈ 3.03 µM)
A549 cells
  IC50: 5.4 ± 4.4 µM
K. pneumoniae Oxa-48
  MIC K. pneumoniae Oxa-48: 4 µg/mL (≈ 3.03 µM)
HEK293 cells
  IC50: 69 ± 2.6 µM
[1]
  MIC Stenotrophomonas maltophilia: 4 µg/mL (≈ 3.03 µM)

## CC(C)C[C@H](NC(=O)[C@H](CC(C)C)NC(=O)[C@H](CC(C)C)NC(=O)[C@@H](CCCCN)NC(=O)[C@H](CC(C)C)NC(=O)[C@H](CC(C)C)NC(=O)[C@@H](CCCCN)NC(=O)[C@H](CC(C)C)NC(=O)[C@H](CC(C)C)NC(=O)[C@@H](CCCCN)NC(=O)[C@H](N)CCCCN)C(N)=O [ln69, kkLLkLLkLLL]
PA14 4.18 (pmrB)
  MIC P. aeruginosa PA14 4.18: 16 µg/mL (≈ 12.1 µM)
P. aeruginosa ZEM-1A
  MIC ZEM-1A: 2 µg/mL (≈ 1.51 µM)
Burkolderia cenocepacia
  MIC Burkolderia cenocepacia: >64 µg/mL
  MIC B. cenocepacia: > 64 µg/mL
Enterobacter cloacae
  MIC Enterobacter cloacae: 4 µg/mL (≈ 3.03 µM)
PA14 4.13 (phoQ)
  MIC P. aeruginosa PA14 4.13: 4 µg/mL (≈ 3.03 µM)
PA14 2P4 (pmrB)
  MIC P. aeruginosaPA14 2P4: 32 µg/mL (≈ 24.2 µM)
P. aeruginosa PA14
  MIC PA14: 2 µg/mL (≈ 1.51 µM)
  MIC P. aeruginosa PA14: 2 µg/mL (≈ 1.51 µM)
Staphylococcus epidermis
  MIC Staphylococcus epidermis: 4 µg/mL (≈ 3.03 µM)
S. aureus Newman
  MIC S. aureus Newman: 8 µg/mL (≈ 6.05 µM)
  MIC S. aureus Newmann: 8 µg/mL (≈ 6.05 µM)
E. coli W3110
  MIC E. coli W3110: 4 µg/mL (≈ 3.03 µM)
K. pneumoniae NCTC418; [2]
  MIC K. pneumoniae NCTC418: 8 µg/mL (≈ 6.05 µM)
K. pneumoniae NCTC418; [3]
  MIC K. pneumoniae NCTC418: 8 µg/mL (≈ 6.05 µM)
A. baumannii ATCC19606; [2]
  MIC A. baumannii ATCC19606: 2 to 4 µg/mL
A. baumannii ATCC19606; [3]
  MIC A. baumannii ATCC19606: 3 µg/mL (≈ 2.27 µM)
S. aureus COL MRSA
  MIC S. aureus COL MRSA: 16 µg/mL (≈ 12.1 µM)
  MIC S. aureus COL: 16 µg/mL (≈ 12.1 µM)
P. aeruginosa PAO1; [2]
  MIC P. aeruginosa PAO1: 8 µg/mL (≈ 6.05 µM)
P. aeruginosa PAO1; [3]
  MIC P. aeruginosa PAO1: 8 µg/mL (≈ 6.05 µM)
A549 cells
  IC50: 21 ± 3.3 µM
P. aeruginosa ZEM9A
  MIC ZEM9A: 8 µg/mL (≈ 6.05 µM)
K. pneumoniae Oxa-48
  MIC K. pneumoniae Oxa-48: 4 µg/mL (≈ 3.03 µM)
HEK293 cells
  IC50: 45 ± 8.9 µM
[1]
  MIC Stenotrophomonas maltophilia: 2 µg/mL (≈ 1.51 µM)

Reference: paper PMC10258794, “To Fold or Not to Fold: Diastereomeric Optimization of an α-Helical Antimicrobial Peptide” (Journal of Medicinal Chemistry, 2023)
